How the values were obtained:
[1] = intraileal injection
Procedure: [^3H]Estrone 3-sulfate, 0.005 μmol/100 μl, was injected directly into the ileal lumen of Ostα^+/+ and Ostα^−/− male (FIG. 18C) and female (FIG. 18D) mice. Tissues were collected for analysis of radioactivity after 30 min.
Mice that had been fed ad libitum were anesthetized by intraperitoneal administration of pentobarbital sodium (50 mg/kg) and additional anesthetic was administered as required for the duration of the experiment. […] At the end of the experiments, 150-300 μl of blood was collected from the abdominal aorta in a tared 1 ml syringe containing 50 μl of heparin (1000 U/ml). The small intestine was removed and segmented into 3 parts, where the first third after the stomach comprised the duodenum, the middle third the jejunum, and the section before the ileo-ceco-colic junction comprised the ileum. Colon, liver, gallbladder, kidney and the urinary bladder were also removed and weighed. The contents of the small intestine, colon, gallbladder and urinary bladder were included in the analysis. For the liver, approximately 0.2-0.4 g of tissue was taken for analysis of radioisotope content. Tissue and blood samples were placed in tared 20-ml glass vials, and Solvable (Perkin-Elmer, Life and Analytical Sciences, Boston, Mass.) was added to each vial (1.0 ml/0.1 g tissue or 2.0 ml/1.0 ml blood), which was then heated to 60° C. for 2 to 3 h. The vials were allowed to cool to room temperature, and 0.1 ml of 0.1 M EDTA/1.0 ml of Solvable was added to each vial of blood. H2O2 (30%) was then added in 0.1-ml aliquots (0.3 ml/1.0 ml Solvable for blood or 0.1 ml/1.0 ml Solvable for tissues). After standing at room temperature for 15 to 30 min, the vials were capped tightly and heated to 60° C. for 1 h and allowed to cool back to room temperature. After the addition of scintillation fluid (4 ml of Opti-Fluor to 200 μl of each sample) (Perkin-Elmer, Life and Analytical Sciences, Boston, Mass.), the samples were allowed to stand for at least 2 h at room temperature before counting. Samples were counted in a Beckman LS 6500 scintillation counter (Beckman Coulter, Fullerton, Calif.). […]

[2] = biological target: Ostα-YN (mouse); test: cell-based or functional assay
Ostα-YN (mouse), sequence (Q8R000 whole entry): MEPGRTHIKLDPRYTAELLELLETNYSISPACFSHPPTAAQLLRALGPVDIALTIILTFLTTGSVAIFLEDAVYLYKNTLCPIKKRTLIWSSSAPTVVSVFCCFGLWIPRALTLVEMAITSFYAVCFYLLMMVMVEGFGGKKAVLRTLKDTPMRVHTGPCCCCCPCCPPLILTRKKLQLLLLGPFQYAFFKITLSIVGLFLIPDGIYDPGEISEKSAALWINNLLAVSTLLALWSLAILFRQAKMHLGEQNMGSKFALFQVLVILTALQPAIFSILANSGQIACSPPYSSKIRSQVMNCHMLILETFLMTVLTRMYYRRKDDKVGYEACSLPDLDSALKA

**Q.** Which “absorption from the ileum” value ([1]; wild type mice, 15 min) does the source give for C[C@H](CCC(=O)NCCS(=O)(=O)O)[C@H]1CC[C@H]2[C@@H]3[C@H](O)C[C@@H]4C[C@H](O)CC[C@]4(C)[C@H]3C[C@H](O)[C@]12C [taurocholate, taurocholic acid] here?
**A.** Its value is > 90%.

**Q.** Which results are given for estrone 3-sulfate [estrone sulfate]?
**A.** fraction absorbed from the ileum ([1]; Ostα−/− mice, 30 min): 20-30%; removed from the ileum ([1]; wild type mice, 30 min): 60-70%

**Q.** With Ostβ29-53-YC (peptide) as the compound, how does the [3H]taurocholate transport in cells co-transfected with Ostα-YN and Ostβ-YC [2] read?
**A.** The [3H]taurocholate transport in cells co-transfected with Ostα-YN and Ostβ-YC was 30%.

— patent US20110030077A1, “METHODS OF MODULATING THE ORGANIC SOLUTE AND STEROID TRANSPORTER (OSTalpha-OSTbeta) ACTIVITY AND TREATING ASSOCIATED CONDITIONS” (UNIVERSITY OF ROCHESTER, priority 2009, published 2011)
